Laboratory results from ChEMBL document CHEMBL1649114, “Effect of concomitant artesunate administration and cytochrome P4502C8 polymorphisms on the pharmacokinetics of amodiaquine in Ghanaian children with uncomplicated malaria” (Antimicrob Agents Chemother, 2008).

Assays:
Set-up in all cases: dose 10 mg/kg, route oral
Homo sapiens [1] = test: AUC in children with uncomplicated malaria assessed as desethylamodiaquine at 10 mg/kg, po administered as single dose; type: ADME, organism-based, Plasma; conditions: in vivo
Homo sapiens [2] = test: Tmax in children with uncomplicated malaria assessed as desethylamodiaquine at 10 mg/kg, po administered as single dose; type: ADME, organism-based; conditions: in vivo
Homo sapiens [3] = test: Cmax in children with uncomplicated malaria assessed as desethylamodiaquine at 10 mg/kg, po administered as single dose; type: ADME, organism-based; conditions: in vivo
Homo sapiens [4] = test: Toxicity in children with uncomplicated malaria assessed as elevated serum aminotransferase levels at 10 mg/kg, po administered as single dose; type: organism-based; conditions: in vivo
Plasma = test: Plasma concentration in children with uncomplicated malaria assessed as desethylamodiaquine at 10 mg/kg, po administered as single dose measured on day 3; type: ADME, organism-based; conditions: human, in vivo
Homo sapiens [5] = test: Toxicity in children with uncomplicated malaria assessed as excessive sleepiness at 10 mg/kg, po administered as single dose; type: organism-based; conditions: in vivo
Homo sapiens [6] = test: Toxicity in children with uncomplicated malaria assessed as bradycardia at 10 mg/kg, po administered as single dose; type: organism-based; conditions: in vivo
Homo sapiens [7] = test: Toxicity in children with uncomplicated malaria assessed as pruritus at 10 mg/kg, po administered as single dose; type: organism-based; conditions: in vivo
Homo sapiens [8] = test: Toxicity in children with uncomplicated malaria assessed as neutropenia at 10 mg/kg, po administered as single dose; type: organism-based; conditions: in vivo

Row | SMILES | AUC (Homo sapiens [1]) | Tmax (Homo sapiens [2]) | Cmax (Homo sapiens [3]) | Activity (Homo sapiens [4]) | Activity (Plasma) | Activity (Homo sapiens [5]) | Activity (Homo sapiens [6]) | Activity (Homo sapiens [7]) | Activity (Homo sapiens [8])
1 | CCN(CC)Cc1cc(Nc2ccnc3cc(Cl)ccc23)ccc1O.Cl | 38516 ng·h/mL | 47.9 h | 1185 ng/mL |  |  |  |  |  | 
2 | CCNCc1cc(Nc2ccnc3cc(Cl)ccc23)ccc1O [DESETHYL AMODIAQUINE] |  |  |  | Toxic | 156.6 ng/mL | Toxic | Toxic | Toxic | Toxic
